# Patent US9051342B2 (priority 2004, dated 2015)
# Where “and” joins values, the source holds several entries; their conditions need not be identical. Equal values may be shown once.
row,Compound,melting point
1,O=C(O)c1cccc(-c2cnn(-c3cccc(OC(F)F)c3)c2)c1 [Compound 172],179 to 181 °C
2,"O=C(O)c1cccc(-c2cnn(-c3ccc(Cl)cc3)c2)n1 [Compound 54, 6-[1-(4-Chloro-phenyl)-1H-pyrazol-4-yl]-pyridine-2-carboxylic acid]",194 to 196 °C
3,"Cc1ccccc1-n1ccc(-c2ccc(C(=O)O)cc2)c1 [Compound 195, 4-(1-o-Tolyl-1H-pyrrol-3-yl)-benzoic acid]",208 to 209 °C
4,"O=C(O)c1ccc(-n2cc(-c3cccc(Cl)c3)cn2)cc1 [Compound 211, 4-[4-(3-Chloro-phenyl)-pyrazol-1-yl]-benzoic acid]",252 to 255 °C
5,"O=C(O)c1ccc(-c2ccn(-c3ccccc3Cl)c2)cc1 [Compound 197, 4-[1-(2-Chloro-phenyl)-1H-pyrrol-3-yl]-benzoic acid]",200 to 202 °C
6,"O=C(O)c1ccc(-c2ccn(-c3ccc4c(c3)OCCO4)c2)cc1 [Compound 150, 4-[1-(2,3-Dihydro-benzo[1,4]dioxin-6-yl)-1H-pyrrol-3-yl]-benzoic acid]",273 to 276 °C
7,"COc1cccc(-n2cc(-c3cccc(C(=O)O)c3)cn2)c1 [Compound 174, 3-[1-(3-Methoxy-phenyl)-1H-pyrazol-4-yl]-benzoic acid]",156 to 157 °C
8,"Cc1cccc(-c2cnn(-c3cccc(C(=O)O)c3)c2)c1 [Compound 90, 3-(4-m-Tolyl-pyrazol-1-yl)-benzoic acid]",181 to 182 °C
9,"O=C(O)c1cccc(-n2cc3c(n2)-c2ccccc2CC3)c1 [Compound 137, 3-(4,5-Dihydro-benzo[g]indazol-2-yl)-benzoic acid]",191 to 192 °C
10,"O=C(O)c1ccc(-n2cc3c(n2)-c2ccccc2CC3)cc1 [Compound 161, 4-(4,5-Dihydro-benzo[g]indazol-2-yl)-benzoic acid]",288 to 290 °C
11,"O=C(O)c1cccc(-n2cc3c(n2)CCc2ccccc2-3)c1 [Compound 141, 3-(4,5-Dihydro-benzo[e]indazol-2-yl)-benzoic acid]",233 to 234 °C
12,"O=C(O)c1cccc(-c2ncn(-c3cccc(F)c3)n2)c1 [Compound 29, 3-[1-(3-Fluoro-phenyl)-1H-[1,2,4]triazol-3-yl]-benzoic acid]",266 to 268 °C
13,"CN(C)c1ccc(-c2cnn(-c3cccc(C(=O)O)c3)c2)cc1 [Compound 110, 3-[4-(4-Dimethylamino-phenyl)-pyrazol-1-yl]-benzoic acid]",224 to 225 °C
14,"CC(C)c1ccc(-n2cc(-c3cccc(C(=O)O)c3)cn2)cc1 [Compound 228, 3-[1-(4-Isopropyl-phenyl)-1H-pyrazol-4-yl]-benzoic acid]",212 to 215 °C
15,"Cc1ccc(-n2cc(-c3ccc(C(=O)O)cc3)cn2)cc1C [Compound 238, 4-[1-(3,4-Dimethyl-phenyl)-1H-pyrazol-4-yl]-benzoic acid]",254 to 256 °C
16,"O=C(O)c1cccc(-c2ccn(-c3cccs3)n2)c1 [Compound 258, 3-(1-Thiophen-2-yl-1H-pyrazol-3-yl)-benzoic acid]",198 to 199 °C
17,"COc1ccc2c(c1)Cc1cn(-c3cccc(C(=O)O)c3)nc1-2 [Compound 139, 3-(6-Methoxy-4H-indeno[1,2-c]pyrazol-2-yl)-benzoic acid]",272 to 273 °C

row,Compound,melting point
1,"O=C(O)c1cccc(-n2cc(-c3cccc(Oc4ccccc4)c3)cn2)c1 [Compound 216, 3-[4-(3-Phenoxy-phenyl)-pyrazol-1-yl]-benzoic acid]",164 to 165 °C
2,"CC(C)c1ccc(-c2nn(-c3ccc(C(=O)O)cc3)c(=S)s2)cc1 [Compound 282, 4-[5-(4-Isopropyl-phenyl)-2-thioxo-[1,3,4]thiadiazol-3-yl]-benzoic acid]",176 to 179 °C
3,"O=C(O)c1ccc(-n2cc(-c3cccc(O)c3)cn2)cc1 [Compound 206, 4-[4-(3-Hydroxy-phenyl)-pyrazol-1-yl]-benzoic acid]",273 to 275 °C
4,"O=C(O)c1cccc(-c2ccn(-c3cccc(OCc4ccccc4)c3)c2)c1 [Compound 246, 3-[1-(3-Benzyloxy-phenyl)-1H-pyrrol-3-yl]-benzoic acid]",142 to 144 °C
5,"CC(C)c1ccc(-c2cn(-c3cccc(C(=O)O)c3)c(N)n2)cc1 [Compound 1, 3-[2-amino-4-(4-isopropylphenyl)-1H-imidazol-1-yl]benzoic acid]",279 to 282 °C (dec.)
6,CC(C)c1ccc(-c2nn(-c3cccc(C(=O)O)c3)c(=O)o2)cc1 [Compound 279],218 to 220 °C
7,"COc1ccc(-c2ncn(-c3cccc(C(=O)O)c3)n2)cc1 [Compound 11, 3-[3-(4-Methoxy-phenyl)-[1,2,4]triazol-1-yl]-benzoic acid]",268 to 270 °C
8,"O=C(O)c1cccc(-c2ncn(-c3ccc(N4CCC4=O)cc3)n2)c1 [Compound 44, 3-{1-[4-(2-Oxo-azetidin-1-yl)-phenyl]-1H-[1,2,4]triazol-3-yl}-benzoic acid]",295 to 297 °C
9,"COc1ccc2c(c1)CCc1cn(-c3ccc(C(=O)O)cc3)nc1-2 [Compound 163, 4-(7-Methoxy-4,5-dihydro-benzo[g]indazol-2-yl)-benzoic acid]",279 to 280 °C
10,"O=C(O)c1cccc(-n2ccc(-c3ccccc3F)n2)c1 [Compound 169, 3-[3-(2-Fluoro-phenyl)-pyrazol-1-yl]-benzoic acid]",166 to 167 °C
11,"Cc1cccc(-n2cnc(-c3cccc(C(=O)O)c3)n2)c1 [Compound 39, 3-(1-m-Tolyl-1H-[1,2,4]triazol-3-yl)-benzoic acid]",223 to 225 °C
12,"O=C(O)c1cccc(-n2cc3c(n2)-c2ccccc2C3)c1 [Compound 138, 3-(4H-Indeno[1,2-c]pyrazol-2-yl)-benzoic acid]",249 to 250 °C
13,"O=C(O)c1ccc(-n2cnc(-c3cccc(C(=O)O)c3)n2)cc1 [Compound 31, 4-[3-(3-Carboxy-phenyl)-[1,2,4]triazol-1-yl]-benzoic acid]",> 300 °C
14,"COc1ccc(-c2cn(-c3ccc(C(=O)O)cc3)nn2)c(C)c1 [Compound 274, 4-[4-(4-Methoxy-2-methyl-phenyl)-[1,2,3]triazol-1-yl]-benzoic acid]",244 to 245 °C
15,"O=C(O)c1ccc(-n2cc(-c3ccc(F)cc3F)nn2)cc1 [Compound 268, 4-[4-(2,4-Difluoro-phenyl)-[1,2,3]triazol-1-yl]-benzoic acid]",312 to 313 °C
16,"COc1ccc2c(c1)-c1cnn(-c3cccc(C(=O)O)c3)c1CC2 [Compound 254, 3-(8-Methoxy-4,5-dihydro-benzo[e]indazol-3-yl)-benzoic acid]",269 to 271 °C
17,"O=C(O)c1cccc(-c2ncn(-c3ccccc3)n2)c1 [Compound 37, 3-(1-Phenyl-1H-[1,2,4]triazol-3-yl)-benzoic acid]",257 to 259 °C

# More lines, now with the values ahead:
row,melting point,Compound
1,266 to 268 °C,"O=C(O)c1ccc(-c2cnn(-c3ccc(F)cc3)c2)cc1 [Compound 182, 4-[1-(4-Fluoro-phenyl)-1H-pyrazol-4-yl]-benzoic acid]"
2,182 to 183 °C,"O=C(O)c1cccc(-c2ccn(-c3ccc(OC(F)F)cc3)n2)c1 [Compound 124, 3-[1-(4-Difluoromethoxy-phenyl)-1H-pyrazol-3-yl]-benzoic acid]"
3,280 to 282 °C,"O=C(O)c1ccc(-c2ccn(-c3cccnc3)n2)cc1 [Compound 261, 4-(1-Pyridin-3-yl-1H-pyrazol-3-yl)-benzoic acid]"
4,178 to 190 °C and 178 to 179 °C,"O=C(O)c1cccc(-c2ccn(-c3cccc(O)c3)n2)c1 [Compound 75, 3-[1-(3-Hydroxy-phenyl)-1H-pyrazol-3-yl]-benzoic acid]"
5,305 to 306 °C,"O=C(O)c1ccc(-n2cc(-c3ccc(C(F)(F)F)cc3)nn2)cc1 [Compound 202, 4-[4-(4-Trifluoromethyl-phenyl)-[1,2,3]triazol-1-yl]-benzoic acid]"
6,180 to 183 °C,"O=C(O)c1cccc(-c2ccn(-c3cccc(Br)c3)n2)c1 [Compound 165, 3-[1-(3-Bromo-phenyl)-1H-pyrazol-3-yl]-benzoic acid]"
7,302 to 303 °C,"Cc1ccc(-c2cn(-c3ccc(C(=O)O)cc3)nn2)cc1 [Compound 201, 4-(4-p-Tolyl-[1,2,3]triazol-1-yl)-benzoic acid]"
8,278 to 279 °C,"CC(=O)c1ccc(-n2ccc(-c3ccc(C(=O)O)cc3)n2)cc1 [Compound 256, 4-[1-(4-Acetyl-phenyl)-1H-pyrazol-3-yl]-benzoic acid]"
9,211 to 213 °C,"O=C(O)c1ccc(-c2ccn(-c3cccc(F)c3)c2)cc1 [Compound 152, 4-[1-(3-Fluoro-phenyl)-1H-pyrrol-3-yl]-benzoic acid]"
10,214 to 215 °C,"O=C(O)c1ccc(-c2ccn(-c3ccc(OC(F)(F)F)cc3)n2)cc1 [Compound 218, 4-[1-(4-Trifluoromethoxy-phenyl)-1H-pyrazol-3-yl]-benzoic acid]"
11,230 to 232 °C,"COc1ccc(-n2cnc(-c3cccc(C(=O)O)c3)n2)cc1 [Compound 12, 3-[1-(4-Methoxy-phenyl)-1H-[1,2,4]triazol-3-yl]-benzoic acid]"
12,> 300 °C,"O=C(O)c1cccc(-c2ccn(-c3cccc(C(=O)O)c3)n2)c1 [Compound 69, 1,3-Bis(3-carboxyphenyl)-1H-pyrazole]"
13,276 to 277 °C,"O=C(O)c1ccc(-n2cc(-c3ccc([N+](=O)[O-])cc3)cn2)cc1 [Compound 102, 4-[4-(4-Nitro-phenyl)-pyrazol-1-yl]-benzoic acid]"
14,310 to 311 °C,"CCOc1ccc(-c2cn(-c3ccc(C(=O)O)cc3)nn2)cc1 [Compound 273, 4-[4-(4-Ethoxy-phenyl)-[1,2,3]triazol-1-yl]-benzoic acid]"
15,321 to 323 °C,"O=C(O)c1ccc(-n2cc(-c3ccc(F)cc3)nn2)cc1 [Compound 266, 4-[4-(4-Fluoro-phenyl)-[1,2,3]triazol-1-yl]-benzoic acid]"
16,263 to 265 °C,"O=C(O)c1ccc(-n2cnc(-c3ccccc3)c2)cc1 [Compound 263, 4-(4-Phenyl-imidazol-1-yl)-benzoic acid]"
17,215 to 216 °C,"CC(=O)c1ccc(-n2ccc(-c3cccc(C(=O)O)c3)n2)cc1 [Compound 255, 3-[1-(4-Acetyl-phenyl)-1H-pyrazol-3-yl]-benzoic acid]"
